Test results published in patent US20040171622A1, “Cardioprotective delta opioid receptor agonists and methods of using same” (priority 2003, published 2004).
Read-outs that look alike come from different tables or passages of the source.

Assays:
δ opioid receptor = molecular target: T1, δ opioid receptor (Rattus norvegicus, UniProt P33533); assay: Radioligand binding ([3H]Deltorphin II), rat brain membranes
T1 construct: tissue Pel-Freeze Biological Inc. (Rogers, Ark.); host or cells: rat whole brain membranes
T1 sequence (P33533 whole entry): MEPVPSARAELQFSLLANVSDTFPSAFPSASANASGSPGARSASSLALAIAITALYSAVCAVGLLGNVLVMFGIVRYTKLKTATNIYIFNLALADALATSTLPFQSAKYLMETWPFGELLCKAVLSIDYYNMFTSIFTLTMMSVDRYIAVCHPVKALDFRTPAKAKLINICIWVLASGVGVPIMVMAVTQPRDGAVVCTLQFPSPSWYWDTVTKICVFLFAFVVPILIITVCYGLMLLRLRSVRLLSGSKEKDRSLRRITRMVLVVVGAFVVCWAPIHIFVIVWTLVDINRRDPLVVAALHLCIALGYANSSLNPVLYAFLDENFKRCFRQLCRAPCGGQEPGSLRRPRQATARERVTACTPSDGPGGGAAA

rats [1] = assay: In vivo coronary artery occlusion and reperfusion, administration immediately prior to reperfusion; set-up: species or system rat; conditions: 0.3 mg/kg, administered at time of reperfusion
κ opioid receptor = molecular target: T2, κ opioid receptor (Cavia porcellus, UniProt P41144); assay: Radioligand binding ([3H]U69593), guinea pig cerebellum membranes
T2 construct: tissue Pel-Freeze Biological Inc. (Rogers, Ark.); host or cells: guinea pig cerebellum membranes
T2 sequence (P41144 whole entry): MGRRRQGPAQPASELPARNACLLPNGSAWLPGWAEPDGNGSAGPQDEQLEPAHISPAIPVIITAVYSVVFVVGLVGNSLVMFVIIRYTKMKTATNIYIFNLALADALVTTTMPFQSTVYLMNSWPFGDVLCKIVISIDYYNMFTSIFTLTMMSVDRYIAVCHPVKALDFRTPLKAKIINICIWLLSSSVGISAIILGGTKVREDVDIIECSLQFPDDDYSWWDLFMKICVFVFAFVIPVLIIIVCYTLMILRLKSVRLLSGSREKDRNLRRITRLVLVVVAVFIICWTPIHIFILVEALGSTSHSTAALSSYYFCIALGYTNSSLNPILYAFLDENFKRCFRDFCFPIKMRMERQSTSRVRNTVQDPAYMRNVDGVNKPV

μ opioid receptor = molecular target: T3, μ opioid receptor (Rattus norvegicus, UniProt P33535); assay: Radioligand binding ([3H]DAMGO), rat brain membranes
T3 construct: tissue Pel-Freeze Biological Inc. (Rogers, Ark.); host or cells: rat whole brain membranes
T3 sequence (P33535 whole entry): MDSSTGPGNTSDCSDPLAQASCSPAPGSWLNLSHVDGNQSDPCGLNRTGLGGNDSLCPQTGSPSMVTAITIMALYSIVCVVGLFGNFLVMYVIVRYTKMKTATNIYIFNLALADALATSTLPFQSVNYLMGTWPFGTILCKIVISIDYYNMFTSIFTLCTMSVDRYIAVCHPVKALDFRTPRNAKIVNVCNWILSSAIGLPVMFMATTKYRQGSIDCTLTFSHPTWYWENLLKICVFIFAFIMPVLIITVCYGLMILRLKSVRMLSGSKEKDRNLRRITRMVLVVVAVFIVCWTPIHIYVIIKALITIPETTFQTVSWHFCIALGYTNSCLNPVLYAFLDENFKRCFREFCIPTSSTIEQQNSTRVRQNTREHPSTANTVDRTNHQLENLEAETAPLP

rats [2] = assay: In vivo coronary artery occlusion (30 min) and reperfusion, pre-ischemic administration; set-up: species or system rat
rats [3] = assay: In vivo LAD coronary artery ligation (35 min) and reperfusion, infarct size, pretreatment 15 min prior; set-up: species or system rat; conditions: 1 mg/kg i.v.
rats [4] = assay: Tail pinch test for analgesia; assay type: in vivo, rat; conditions: intravenous
Method: (§1) Analgesia was assayed in rats using the tail pinch test. Compound 1 was administered intravenously. Nociceptive response values were obtained for a 1-2 hour period. An artery clamp was placed on the tail (one inch from the tip of the tail) for a short duration until an escape response occurred (i.e. tail-flick or vocalization). The escape response latency was recorded by means of a stopwatch. A cutoff time of 20 sec. was used to prevent unnecessary tissue damage. […] The elapsed time to elicit a pain response was recorded as the tail pinch latency in seconds.
(§2) Further, the compound acts predominately at peripheral delta opioid receptors.

[5] = tested on: hearts isolated from Sprague-Dawley rats; assay: tissue or blood; set-up: species or system rat; conditions: for % IS/AAR: about 15 min prior to occlusion; for inhibition at 0.0001 µM / inhibition at 0.001 µM / inhibition at 0.01 µM: Rattus norvegicus, after 35 min regional ischemia and 120 min reperfusion; for inhibition at 0.0001 µM: 0.1 nM; for inhibition at 0.001 µM: 1.0 nM
rats [6] = assay: Observation of seizures in tail pinch test animals; assay type: in vivo, rat; conditions: intravenous, up to 50 mg/kg
Method: as §1, §2

[7] = 0.03 mg/kg i.v. 5 min prior to occlusion
[8] = 0.3 mg/kg i.v. 5 min prior to occlusion

## CCN(CC)C(=O)c1ccc([C@H](c2cccc(O)c2)N2C[C@@H](C)N(Cc3ccc(C(=O)O)cc3)C[C@@H]2C)cc1 [Compound 1]
δ opioid receptor
  Ki: 1.89 nM
Rats [1]
  protection against control ischemic damage: 30-40%
κ opioid receptor
  Ki: 17400 nM
μ opioid receptor
  Ki: 1520 nM
Rats [2]; 0.01 mg/kg i.v. 5 min prior to occlusion
  Study 1 (% IS/AAR): 56 ± 5%
Rats [2]; [7]
  Study 1 (% IS/AAR): 44 ± 10%
  Study 2 (% IS/AAR): 40 ± 3%
Rats [2]; 0.1 mg/kg i.v. 5 min prior to occlusion
  Study 2 (% IS/AAR): 39 ± 3%
Rats [2]; [8]
  Study 1 (% IS/AAR): 35 ± 11%
  Study 2 (% IS/AAR): 38 ± 3%
Rats [2]; 1.0 mg/kg i.v. 5 min prior to occlusion
  Study 1 (% IS/AAR): 40 ± 8%
Rats [3]; measurement 156 hours after administration (approximately 7 days)
  Reduction of Infarct Size Relative to Non treated Control: 43%
Rats [3]; measurement after acute administration
  Reduction of Infarct Size Relative to Non treated Control: 48%
Rats [4]; Rattus norvegicus, 20 sec cutoff
  ED50: > 50 mg/kg
Rats [4]
  analgesic activity: no analgesic activity
[5]; 1 nM acute pretreatment, one group, FIG. 1
  reduction of infarct size relative to control group: 71%
[5]; 1 nM, isolated rat heart
  % IS/AAR: 18 ± 5%
[5]; 2 nM, isolated rat heart
  % IS/AAR: 9 ± 2%
  protection against damage present in control group (maximal protection): ~90%
[5]; 10 nM, isolated rat heart
  % IS/AAR: 20 ± 6%
[5]; read-out: +dP/dt % inhibition
  inhibition at 0.0001 µM: 26%
  inhibition at 0.001 µM: 7%
[5]; read-out: CF % inhibition
  inhibition at 0.0001 µM: 43%
  inhibition at 0.001 µM: 13%
[5]; read-out: HRXDP % inhibition
  inhibition at 0.0001 µM: 32%
  inhibition at 0.001 µM: 17%
[5]; read-out: −dP/dt % inhibition
  inhibition at 0.0001 µM: 19%
  inhibition at 0.001 µM: 10%
[5]; 10 nM, read-out: +dP/dt % inhibition
  inhibition at 0.01 µM: 21%
[5]; 10 nM, read-out: CF % inhibition
  inhibition at 0.01 µM: 38%
[5]; 10 nM, read-out: HRXDP % inhibition
  inhibition at 0.01 µM: 32%
[5]; 10 nM, read-out: −dP/dt % inhibition
  inhibition at 0.01 µM: 18%
[5]; pretreated hearts, some parameters up to 90%
  heart tissue functioning, % of normal (on the average): at least 75%
Rats [6]
  Seizures: NONE
Rats [6]; listed as compound (1)
  Seizures: no seizures were observed
